Reference: PMC12595484, “Optimizing multifunctional fluorescent ligands for intracellular labeling” (Proceedings of the National Academy of Sciences of the …, 2025)

Tested on: OMP25–msGFP–HaloTag fusion protein in HEK293T cells
Test: Pulse–chase HaloTag labeling efficiency, SDS–PAGE/in-gel fluorescence
Format: cell-based
Conditions: 2 h, mean ± SEM
Description: PBS, 2% (v/v) SDS, 1% (v/v) Triton x-100, 10 mM EDTA, and protease inhibitors (2 mM PMSF, aprotinin, leupeptin, and pepstatin A). Samples were then incubated at 50 °C for 3–4 min after the addition of Laemmli sample buffer (SB; Bio-Rad, 1610747) with β-mercaptoethanol (Bio-Rad, 1610710). For protein detection, 10–20 µL of the sample was subjected to SDS-PAGE, using 10% Tris-Glycine gels (TGX) (Bio-Rad, 5671034) with Tris-Glycine buffer (Bio-Rad, 1610732). […]
Quantification of HaloTag labeling efficiency using in-gel fluorescence. HEK293T cells were cultured, incubated and transfected with pF(UG) hSyn HaloTag-TEV-4×GS-msGFP-mito using lipofectamine LTX reagent as described above. To examine saturation of HaloTag, we screened for fluorescence plateau using 1 μM of JF479-HaloTag ligand,4 JF549-HaloTag ligand (2HTL) and […]
(2HTL) and JF608-HaloTag ligand (3HTL) reached a fluorescence plateau, and they were chosen as saturating counter stains or “chase” dyes for examining the labeling efficiency of biotin-JF-HaloTag ligands (13HTL–16HTL). Next, we developed an in-gel assay to independently quantitate labeling efficiencies of 13HTL–16HTL. We used JF549-HaloTag ligand (2HTL) as chase for evaluating biotin-JF608-HaloTag ligand (14HTL), biotin-JF646-HaloTag ligand (15HTL), and biotin-JF635-HaloTag ligand (16HTL). We used JF608-HaloTag ligand (3HTL) as chase for evaluating biotin-JF549-HaloTag ligand (13HTL). Each experiment consisted of testing the biotin variants 13HTL–16HTL at 100 nM and 1 μM with an incubation time of 2 h and a chase labeling incubation of 1 μM for 0.5 h. The 0.5 h chase labeling period was included with the 2 h total incubation. Each experiment consisted of the following conditions: untransfected cells; (A) transduced, but no dye; (B) non-biotinylated variant of primary label at 1 μM for 0.5 h; (C) the nonbiotinylated version of the chase JF dye at 1 μM for 0.5 h; (D) 100 nM of the nonbiotinylated version of the primary label for 2 h; (E) 100 nM of the biotinylated version of primary label for 2 h; (F) 1 μM of the nonbiotinylated version of the primary label for 2 h; (G) 1 μM of the biotinylated version of primary label for 2 h; and (H) 1 μM of the non-biotinylated version of the chase JF dye at 1 μM for 2 h. This last condition H was the same as condition C but with a longer incubation (2 h vs. 0.5 h) to allow independent verification of the chase saturation using 0.5 h incubation. Samples D–G were incubated with a nonbiotinylated chase dye at 1 μM for 0.5 h. Cells were washed and protein lysates were harvested using Bio-Rad SDS-PAGE products as described above. Specifically, cells were lysed using protein lysis buffer as described above, and adding XT Sample Buffer (Bio-Rad, 1610791) and XT Reducing Agent (Bio-Rad, 1610792). Samples were heated at 72 °C for 5 min. Samples were then loaded onto a 4–12% Criterion XT Bis-Tris gel (Bio-Rad, 3450124) and ran at 150 V for approximately 1 h. Gels were then imaged on a Chemidoc MP imager (Bio-Rad) using orange, red, and far-red filters. Bands representing HaloTag ligand were quantified by densitometry using […]
labeling efficiency calculations, bands representing saturating chase dye fluorescence (e.g., JF549) were compared to saturating primary dye fluorescence allowing estimation of the amount of […]
Where F is the fraction of HaloTag protein labeled, Ce is the experimental chase dye fluorescence signal after incubation with pulse biotin-JF-HaloTag ligand, and Cs is the saturating chase dye fluorescence without incubation with a pulse ligand.
Neuro2a cell culture, labeling, lattice light sheet microscopy (LLSM), and confocal microscopy. Neuro2a cells (ATCC, CCL-131) were cultured in Eagle's minimum essential medium (MEM, phenol red-free; Life Technologies) supplemented with 10% (v/v) fetal bovine serum (FBS), and maintained at 37 °C in a humidified 5% (v/v) CO2 environment. Cells were transiently transfected using nucleofection (Lonza) with plasmids constitutively expressing

Row | Structure (SMILES) | labeling efficiency (100 nM pulse) | labeling efficiency (1 µM pulse)
1 | O=C(CCCCC1SCC2NC(=O)NC21)NCCOCCOCCNC(=O)C1C[N+](=c2ccc3c(-c4cc(C(=O)NCCOCCOCCCCCCCl)ccc4C(=O)[O-])c4ccc(N5CCC5)cc4oc-3c2)C1 (centres unmarked) [13HTL, biotin–JF549–HaloTag ligand] | < 3% | < 3%
2 | CC1(C)C2=CC(=[N+]3CC(C(=O)NCCOCCOCCNC(=O)CCCC[C@@H]4SC[C@@H]5NC(=O)N[C@@H]54)C3)C=CC2=C(c2cc(C(=O)NCCOCCOCCCCCCCl)ccc2C(=O)[O-])c2ccc(N3CCC3)cc21 (some centres unmarked) [14HTL, biotin–JF608–HaloTag ligand] | 11.3 ± 6.4% | 57.7 ± 9.6%
3 | C[Si]1(C)C2=CC(=[N+]3CC(C(=O)NCCOCCOCCNC(=O)CCCC[C@@H]4SC[C@@H]5NC(=O)N[C@@H]54)C3)C=CC2=C(c2cc(C(=O)NCCOCCOCCCCCCCl)ccc2C(=O)[O-])c2ccc(N3CCC3)cc21 (some centres unmarked) [15HTL, biotin–JF646–HaloTag ligand] | 13.6 ± 3.7% | 61.7 ± 6.8%
4 | C[Si]1(C)C2=CC(=[N+]3CC(F)(C(=O)NCCOCCOCCNC(=O)CCCC[C@@H]4SC[C@@H]5NC(=O)N[C@@H]54)C3)C=CC2=C(c2cc(C(=O)NCCOCCOCCCCCCCl)ccc2C(=O)[O-])c2ccc(N3CC(F)C3)cc21 (some centres unmarked) [16HTL, biotin–JF635–HaloTag ligand] | 18.0 ± 4.9% | 69.0 ± 4.2%
